Literature values, collected in patent publication US7226619B1, “Material for controlling diversion of medications” (PharmoRx Inc., priority 2004, dated 2007).
Read-outs that look alike come from different tables or passages of the source.

Key:
[1] = target: 2D6 component of the P450 metabolic system (Homo sapiens, UniProt P10635)
[2] = oxymorphone vs parent oxycodone; per Richard B. Patt, American Pain Society Bulletin 6(4), 1996

2D6 component of the P450 metabolic system, sequence (P10635 whole entry): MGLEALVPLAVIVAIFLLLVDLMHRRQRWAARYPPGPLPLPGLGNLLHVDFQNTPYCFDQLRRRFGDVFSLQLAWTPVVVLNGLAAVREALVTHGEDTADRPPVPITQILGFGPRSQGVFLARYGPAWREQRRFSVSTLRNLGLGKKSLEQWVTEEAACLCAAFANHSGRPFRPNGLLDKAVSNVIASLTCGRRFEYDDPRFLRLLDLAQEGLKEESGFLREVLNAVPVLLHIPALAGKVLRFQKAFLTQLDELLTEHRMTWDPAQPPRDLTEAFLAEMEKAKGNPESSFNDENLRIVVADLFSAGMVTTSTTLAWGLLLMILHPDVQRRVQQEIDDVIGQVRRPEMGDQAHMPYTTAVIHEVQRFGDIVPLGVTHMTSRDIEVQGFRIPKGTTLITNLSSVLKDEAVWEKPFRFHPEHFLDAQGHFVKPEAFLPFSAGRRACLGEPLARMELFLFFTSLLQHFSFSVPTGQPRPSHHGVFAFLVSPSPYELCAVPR

Question: With `COC(=O)C1=CO[C@@H](C)[C@H]2CN3CCc4c([nH]c5ccccc45)[C@@H]3C[C@H]12` [ajmalicine] as the compound, how does the “inhibitor of 2D6 (in words)” value ([1]; qualitative statement, no data) read?
Answer: Its value is “strong inhibitors”.

Question: With `CN/C(=N/CCSCc1nc[nH]c1C)NC#N` [cimetidine] as the compound, how does the “inhibitor of 2D6 (in words)” value [1] read?
Answer: Its value is “strong inhibitors”.

Question: With `COc1ccc(CN(CCN(C)C)c2ccccn2)cc1` [mepyramine] as the compound, how does the “inhibitor of 2D6 (in words)” value [1] read?
Answer: The value was “strong inhibitors”.

Question: Which “effectiveness as an agonist relative to oxycodone” value [2] does the source give for `CN1CC[C@]23c4c5ccc(O)c4O[C@H]2C(=O)CC[C@@]3(O)[C@H]1C5` [oxymorphone] here?
Answer: The value was “at least 10 times”.

Question: With `Fc1ccc([C@@H]2CCNC[C@H]2COc2ccc3c(c2)OCO3)cc1` [paroxetine] as the compound, how does the “inhibitor of 2D6 (in words)” value ([1]; qualitative statement, no data) read?
Answer: The value was “strong inhibitors”.

Question: For `C=C[C@H]1C[N@@]2CC[C@H]1C[C@@H]2[C@@H](O)c1ccnc2ccc(OC)cc12` [quinidine], which “inhibitor of 2D6 (in words)” value ([1]; qualitative statement, no data) is on record?
Answer: The value was “strong inhibitors”.

Question: Which “inhibitor of 2D6 (in words)” value [1] does the source give for `COC(=O)[C@H]1[C@H]2C[C@@H]3c4[nH]c5cc(OC)ccc5c4CCN3C[C@H]2C[C@@H](OC(=O)c2cc(OC)c(OC)c(OC)c2)[C@@H]1OC` [reserpine] here?
Answer: The value was “strong inhibitors”.
